# Read-outs that look alike come from different tables or passages of the source.
# Experiments:
# [1] = system: phenylquinone writhing syndrome; assay: Phenylquinone writhing test (analgesic activity); type: in vivo, female white mice; details: oral; for ED50: Mus musculus, 1% methylcellulose, Tables VIII and IX, read-out: ED50 (effective analgesic dose for 50% of the mice); for peak time: time of peak action
# Procedure: Phenylquinone Writhing Test A standard procedure for detecting and comparing the analgesic activity of compounds in this series for which there is good correlation with human efficacy is the standard phenylquinone writhing test modified from Siegmund, et al., Proc. Soc. Exp. Biol. Med. 95, 729 (1957). […] Aqueous (0.01% phenyl-p-benzoquinone) phenylquinone was injected intraperitoneally at 24 minutes later using 0.20 ml per mouse. […] The effective analgesic dose for 50% of the mice (ED50) was calculated by the moving average method of Thompson, W. R., Bact. Rev. 11, 115-145 (1947); also time of peak action was determined for many of the compounds.
# [2] = system: established adjuvant-induced arthritis in rats; assay: Established adjuvant-induced arthritis in rats (therapeutic, paw volume); type: in vivo, Charles River Lewis male rats; details: for ED50: Rattus norvegicus, read-out: Adjuvant Arthritis (ED50%)
# [3] = po, established arthritis, 7 daily doses, ED50% decrease from control paw volume, Tables I-III
# [4] = established arthritis, oral, 7 daily doses, ED50% decrease from control paw volume, Tables I-III
smiles,measurement,setting,value
"COc1ccc(-c2nc(SCC(F)(F)F)[nH]c2-c2ccc(OC)cc2)cc1 [Example 4, 4,5-bis-(4-Methoxyphenyl)-2-(2,2,2-trifluoroethylthio)imidazole]",ED50,[1],1.2 mg/kg
same,peak time,[1],240 min
same,ED50,[2]; [3],20 mg/kg
"COc1ccc(-c2nc([S+]([O-])CC(F)(F)F)[nH]c2-c2ccc(OC)cc2)cc1 (stereo not drawn) [Example 5, 4,5-bis(4-Methoxyphenyl)-2-(2,2,2-trifluoroethylsulfinyl)-imidazole]",ED50,[1],0.86 mg/kg
same,peak time,[1],60 min
same,ED50,[2]; [3],10 mg/kg
"COc1ccc(-c2nc(S(=O)(=O)CC(F)(F)F)[nH]c2-c2ccc(OC)cc2)cc1 [Example 6, 4,5-bis(4-Methoxyphenyl)-2-(2,2,2-trifluoroethylsulfonyl)-imidazole]",ED50,[1],0.58 mg/kg
same,peak time,[1],60 min
same,ED50,[2]; [3],3.8 mg/kg
"O=S(=O)(c1nc(-c2ccccc2)c(-c2ccccc2)[nH]1)C(F)(F)C(F)F [Example 60, 4,5-diphenyl-2-(1,1,2,2-tetrafluoroethylsulfonyl)imidazole]",ED50,[1],0.48 mg/kg
same,peak time,[1],120 min
same,ED50,[2]; [3],0.13 mg/kg
"COc1ccc(-c2nc(S(=O)(=O)C(F)(F)C(F)F)[nH]c2-c2ccc(OC)cc2)cc1 [Example 64, 4,5-bis(4-methoxyphenyl)-2-(1,1,2,2-tetrafluoroethylsulfonyl)imidazole]",ED50,[1],0.11 mg/kg
same,peak time,[1],120 min
same,ED50,[2]; [3],1.1 mg/kg
COc1ccc(-c2nc([S+]([O-])C(F)(F)C(F)F)[nH]c2-c2ccc(OC)cc2)cc1 (stereo not drawn) [Example 65],ED50,[1],0.8 mg/kg
same,ED50,[2]; [3],2.4 mg/kg
COc1ccc(-c2nc(S(=O)(=O)C(F)F)[nH]c2-c2ccc(OC)cc2)cc1 [Example 74],ED50,[1],1.5 mg/kg
same,ED50,[2]; [3],0.5 mg/kg
COc1ccc(-c2nc(S(=O)(=O)C(F)(F)C(F)F)[nH]c2-c2ccccc2)cc1 [Example 82],ED50,[1],0.33 mg/kg
same,peak time,[1],240 min
same,ED50,[2]; [3],1.1 mg/kg
COc1ccc(-c2[nH]c(S(=O)(=O)C(F)(F)C(F)F)nc2-c2ccccc2Cl)cc1 [Example 83],ED50,[1],0.56 mg/kg
same,peak time,[1],60 min
same,ED50,[2]; [3],7.2 mg/kg
COc1ccc(-c2nc(S(=O)(=O)C(F)(F)C(F)Br)[nH]c2-c2ccc(OC)cc2)cc1 (stereo not drawn) [Example 95],ED50,[1],2.8 mg/kg
same,ED50,[2]; [3],2.4 mg/kg
Cc1ccc(-c2nc(S(=O)(=O)C(F)(F)C(F)F)[nH]c2-c2ccccc2)cc1 [Example 96],ED50,[2]; [3],0.6 mg/kg
O=S(=O)(c1nc(-c2ccc3c(c2)OCO3)c(-c2ccc3c(c2)OCO3)[nH]1)C(F)(F)C(F)F [Example 97],ED50,[2]; [3],1 mg/kg
COc1ccc(-c2nc([S+]([O-])CC(C)=O)[nH]c2-c2ccc(OC)cc2)cc1 (stereo not drawn) [Example 98],ED50,[2]; [3],56 mg/kg
COc1ccc(-c2nc(S(=O)(=O)CS(C)(=O)=O)[nH]c2-c2ccc(OC)cc2)cc1 [Example 99],ED50,[2]; [3],54 mg/kg
COc1ccc(-c2nc(S(=O)(=O)CC(C)=O)[nH]c2-c2ccc(OC)cc2)cc1 [Example 100],ED50,[2]; [3],18 mg/kg
"O=S(=O)(c1nc(-c2ccccc2)c(-c2ccccc2)[nH]1)C(F)(F)F [Example 103, 4,5-diphenyl-2-trifluoromethylsulfonylimidazole]",ED50,[2]; [3],0.03 mg/kg
"O=S(=O)(c1nc(-c2ccc(F)cc2)c(-c2ccc(F)cc2)[nH]1)C(F)(F)F [Example 104, 4,5-bis(p-fluorophenyl)-2-trifluoromethylsulfonylimidazole]",ED50,[2]; [3],0.015 mg/kg
COc1ccc(-c2nc(SC(F)(F)F)[nH]c2-c2ccc(OC)cc2)cc1 [Example 107],ED50,[2]; [3],1.5 mg/kg
CCCCSc1nc(-c2ccc(F)cc2)c(-c2ccc(F)cc2)[nH]1 [Example 108],percent (%) reduction in paw volume measured at the indicated dose,"[2]; 10 mg./kg., oral",77%
COc1ccc(-c2nc(SC(F)(F)F)[nH]c2-c2ccc(F)cc2)cc1 [Example 109],ED50,[2]; [3],2.7 mg/kg
Fc1ccc(-c2nc(SC(F)(F)C(F)(F)F)[nH]c2-c2ccc(F)cc2)cc1 [Example 110],ED50,[2]; [3],0.2 mg/kg
FC(F)(F)Sc1nc(-c2ccccc2)c(-c2ccc(Cl)c(Cl)c2)[nH]1 [Example 111],ED50,[2]; [3],7 mg/kg
CSc1nc(-c2ccccc2)c(-c2ccc(Cl)c(Cl)c2)[nH]1 [Example 112],percent (%) reduction in paw volume measured at the indicated dose,"[2]; 25 mg./kg., oral",62%
CSc1nc(-c2ccccc2)c(-c2cccc(F)c2)[nH]1 [Example 113],ED50,[2]; [3],50 mg/kg
CSc1nc(-c2ccccc2)c(-c2cccc(Cl)c2)[nH]1 [Example 114],percent (%) reduction in paw volume measured at the indicated dose,"[2]; 50 mg./kg., oral",45%
CCOc1ccc(-c2[nH]c(SC)nc2-c2ccccc2)cc1 [Example 115],percent (%) reduction in paw volume measured at the indicated dose,"[2]; 50 mg./kg., oral",33%
COc1ccc(-c2nc(SC(F)(F)C(F)I)[nH]c2-c2ccc(OC)cc2)cc1 (stereo not drawn) [Example 116],Adjuvant Arthritis (ED50%),[2]; [4],30 mg/kg
COc1ccc(-c2[nH]c(SC(F)(F)C(F)F)nc2-c2ccc(F)cc2)cc1 [Example 117],ED50,[2]; [3],14 mg/kg
CCOc1ccc(-c2[nH]c(SC(F)(F)C(F)F)nc2-c2ccccc2)cc1 [Example 118],percent (%) reduction in paw volume measured at the indicated dose,"[2]; 10 mg./kg., oral",32%
FC(F)C(F)(F)Sc1nc(-c2ccccc2)c(-c2ccc(Cl)c(Cl)c2)[nH]1 [Example 119],ED50,[2]; [3],3 mg/kg
Fc1cccc(-c2[nH]c(SC(F)(F)C(F)F)nc2-c2ccccc2)c1 [Example 120],percent (%) reduction in paw volume measured at the indicated dose,"[2]; 1.0 mg./kg., oral",37%
FC(F)C(F)(F)Sc1nc(-c2ccccc2)c(-c2cccc(Cl)c2)[nH]1 [Example 121],ED50,[2]; [3],0.6 mg/kg
O=S(=O)(c1nc(-c2ccccc2)c(-c2ccccc2)[nH]1)C(F)(F)CF [Example 124],ED50,[2]; [3],0.15 mg/kg
"COc1ccc(-c2nc(S(=O)(=O)C(F)(F)CF)[nH]c2-c2ccc(OC)cc2)cc1 [Example 125, 4,5-bis(4-methoxyphenyl)-2-(1,1,2-trifluoroethylsulfonyl)imidazole]",ED50,[1],0.25 mg/kg
same,peak time,[1],160 min
same,ED50,[2]; [3],5 mg/kg
O=S(=O)(c1nc(-c2ccccc2)c(-c2ccccc2)[nH]1)C(F)(F)C(F)Br (stereo not drawn) [Example 126],ED50,[2]; [3],0.85 mg/kg
"COc1ccc(-c2nc(S(=O)(=O)C(F)(F)F)[nH]c2-c2ccc(OC)cc2)cc1 [Example 127, 4,5-bis(4-methoxyphenyl)-2-(trifluoromethylsulfonyl)imidazole]",ED50,[1],0.045 mg/kg
same,peak time,[1],240 min
same,ED50,[2]; [3],0.33 mg/kg
COc1ccc(-c2nc(S(=O)(=O)C(F)(F)C(F)I)[nH]c2-c2ccc(OC)cc2)cc1 (stereo not drawn) [Example 128],ED50,[2]; [3],3 mg/kg
CCCCS(=O)(=O)c1nc(-c2ccc(OC)cc2)c(-c2ccc(OC)cc2)[nH]1 [Example 129],percent (%) reduction in paw volume measured at the indicated dose,"[2]; 50 mg./kg., oral",71%
COc1ccc(-c2nc(S(=O)(=O)C(F)(F)F)[nH]c2-c2ccc(F)cc2)cc1 [Example 130],ED50,[1],0.1 mg/kg
same,ED50,[2]; [3],1.4 mg/kg
Cc1ccc(-c2[nH]c(S(=O)(=O)C(F)(F)C(F)F)nc2-c2ccc(Cl)cc2)cc1 [Example 131],percent (%) reduction in paw volume measured at the indicated dose,"[2]; 10 mg./kg., oral",36%
COc1ccc(-c2[nH]c(S(=O)(=O)C(F)(F)C(F)F)nc2-c2ccc(F)cc2)cc1 [Example 133],ED50,[1],0.27 mg/kg
same,ED50,[2]; [3],2.2 mg/kg
[O-][S+](c1nc(-c2ccc(F)cc2)c(-c2ccc(F)cc2)[nH]1)C(F)(F)C(F)F (stereo not drawn) [Example 134],ED50,[2]; [3],0.055 mg/kg
O=[N+]([O-])c1ccc(-c2nc(S(=O)(=O)C(F)(F)C(F)F)[nH]c2-c2ccc([N+](=O)[O-])cc2)cc1 [Example 135],ED50,[2]; [4],8.5 mg/kg
C[S+]([O-])c1nc(-c2ccc(F)cc2)c(-c2ccc(F)cc2)[nH]1 (stereo not drawn) [Example 136],ED50,[2]; [3],4 mg/kg
"O=S(=O)(c1nc(-c2ccccc2)c(-c2ccc(Cl)c(Cl)c2)[nH]1)C(F)(F)C(F)F [Example 137, 4(or 5)-(3,4-dichlorophenyl)-5(or 4)-phenyl-2-(1,1,2,2-tetrafluoroethylsulfonyl)imidazole]",ED50,[2]; [3],0.25 mg/kg
CCOc1ccc(-c2[nH]c(S(C)(=O)=O)nc2-c2ccccc2)cc1 [Example 138],percent (%) reduction in paw volume measured at the indicated dose,"[2]; 50 mg./kg., oral",41%
C[S+]([O-])c1nc(-c2ccccc2)c(-c2cccc(Cl)c2)[nH]1 (stereo not drawn) [Example 139],percent (%) reduction in paw volume measured at the indicated dose,"[2]; 75 mg./kg., oral",77%
CS(=O)(=O)c1nc(-c2ccccc2)c(-c2ccc(F)cc2)[nH]1 [Example 141],percent (%) reduction in paw volume measured at the indicated dose,"[2]; 9 mg./kg., oral",26%
CCOc1ccc(-c2[nH]c(S(=O)(=O)C(F)(F)C(F)F)nc2-c2ccccc2)cc1 [Example 142],ED50,[1],0.95 mg/kg
same,peak time,[1],120 min
same,ED50,[2]; [3],1.5 mg/kg
O=S(=O)(c1nc(-c2ccccc2)c(-c2cccc(F)c2)[nH]1)C(F)(F)C(F)F [Example 143],ED50,[2]; [3],0.06 mg/kg
O=S(=O)(c1nc(-c2ccccc2)c(-c2cccc(Cl)c2)[nH]1)C(F)(F)C(F)F [Example 144],ED50,[2]; [3],0.05 mg/kg
CS(=O)(=O)c1nc(-c2ccccc2)c(-c2ccc(Cl)c(Cl)c2)[nH]1 [Example 145],percent (%) reduction in paw volume measured at the indicated dose,"[2]; 50 mg./kg., oral",59%
C[S+]([O-])c1nc(-c2ccccc2)c(-c2ccc(Cl)c(Cl)c2)[nH]1 (stereo not drawn) [Example 146],ED50,[2]; [3],50 mg/kg
CS(=O)(=O)c1nc(-c2ccccc2)c(-c2cccc(F)c2)[nH]1 [Example 147],percent (%) reduction in paw volume measured at the indicated dose,"[2]; 75 mg./kg., oral",32%
C[S+]([O-])c1nc(-c2ccccc2)c(-c2cccc(F)c2)[nH]1 (stereo not drawn) [Example 148],percent (%) reduction in paw volume measured at the indicated dose,"[2]; 100 mg./kg., oral",67%
CS(=O)(=O)c1nc(-c2ccccc2)c(-c2cccc(Cl)c2)[nH]1 [Example 149],percent (%) reduction in paw volume measured at the indicated dose,"[2]; 10 mg./kg., oral",55%

# Source: patent US4190666A, “Anti-inflammatory 4,5-diarly-2-(substituted-thio)imidazoles and their corresponding sulfoxides and sulfones” (E. I. Du Pont de Nemours and Company, priority 1978, dated 1980)
